In US20230140216A1, “COMBINATION THERAPY FOR TREATING MPS1” (GAIN THERAPEUTICS SA, priority 2020, published 2023):

Key:
[1] = target: T1, Recombinant human α-L-iduronidase protein (Homo sapiens, UniProt P35475); test: Differential scanning fluorimetry (DSF) thermal stabilization; type: binding; details: ΔTm class;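 further: Classes count stabilization of α-L-iduronidase despite the GALC label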
T1 construct: purchased R&D
T1 sequence (P35475 28-653): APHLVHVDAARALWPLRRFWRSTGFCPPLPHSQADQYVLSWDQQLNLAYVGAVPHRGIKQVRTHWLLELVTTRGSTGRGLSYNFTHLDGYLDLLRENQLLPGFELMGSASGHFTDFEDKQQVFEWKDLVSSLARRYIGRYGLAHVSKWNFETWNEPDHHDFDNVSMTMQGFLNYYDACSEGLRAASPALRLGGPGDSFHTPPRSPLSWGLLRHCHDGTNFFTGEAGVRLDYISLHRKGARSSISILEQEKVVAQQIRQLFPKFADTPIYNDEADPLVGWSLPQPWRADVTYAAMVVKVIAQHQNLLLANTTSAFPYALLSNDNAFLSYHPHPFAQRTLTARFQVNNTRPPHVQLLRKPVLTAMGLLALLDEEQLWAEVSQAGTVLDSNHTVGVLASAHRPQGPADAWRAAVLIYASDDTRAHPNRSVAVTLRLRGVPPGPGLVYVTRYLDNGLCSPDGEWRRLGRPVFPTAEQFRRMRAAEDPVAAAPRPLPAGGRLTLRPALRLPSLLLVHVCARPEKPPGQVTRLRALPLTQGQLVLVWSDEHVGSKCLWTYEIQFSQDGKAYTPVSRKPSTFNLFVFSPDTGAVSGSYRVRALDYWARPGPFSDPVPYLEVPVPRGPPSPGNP
Outline: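 Purified recombinant human α-L-iduronidase (final 0.75 µM) in 100 mM Hepes, 20 mM MgCl2, pH 7 with SYPRO Orange was heated with compounds (final 1% DMSO). Thermal denaturation was followed by probe fluorescence during a temperature ramp, and stabilization expressed as ΔTm, binned into four categories (A–D).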

[2] = target: T2, ALDURAZYME (laronidase, IDUA) (Homo sapiens, UniProt P35475); test: Denaturation prevention assay with ALDURAZYME; type: biochemical; details: 30 µM compound, pH 7, 37° C.
T2 construct: purchased ALDURAZYME®
T2 sequence (P35475 26-653 limits assumed): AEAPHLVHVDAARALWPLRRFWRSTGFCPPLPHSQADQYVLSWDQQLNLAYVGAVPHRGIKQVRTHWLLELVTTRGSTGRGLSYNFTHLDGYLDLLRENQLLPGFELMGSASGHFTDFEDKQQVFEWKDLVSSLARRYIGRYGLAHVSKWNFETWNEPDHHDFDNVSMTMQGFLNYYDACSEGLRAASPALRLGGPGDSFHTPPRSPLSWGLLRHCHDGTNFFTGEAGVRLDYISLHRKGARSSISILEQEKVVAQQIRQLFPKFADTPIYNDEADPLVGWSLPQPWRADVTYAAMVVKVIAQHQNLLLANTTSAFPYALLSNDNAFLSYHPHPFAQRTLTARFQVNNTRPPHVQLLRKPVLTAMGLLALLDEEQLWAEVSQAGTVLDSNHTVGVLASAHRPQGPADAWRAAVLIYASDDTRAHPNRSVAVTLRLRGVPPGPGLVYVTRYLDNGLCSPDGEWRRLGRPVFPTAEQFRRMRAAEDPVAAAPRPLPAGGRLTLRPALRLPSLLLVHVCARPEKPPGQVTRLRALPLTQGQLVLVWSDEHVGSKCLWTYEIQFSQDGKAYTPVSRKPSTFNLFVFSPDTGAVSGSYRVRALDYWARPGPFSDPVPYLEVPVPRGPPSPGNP
Protocol: (§1) Briefly, recombinant human α-L-iduronidase protein (obtained in the Institute of Biotechnology and Biomedicine in the UAB, Bellaterra, Spain) was combined at a final concentration of 1 µM with 5X of SYPRO Orange and 30 µM of the corresponding compound in a final reaction volume of 25 µL in 100 mM Hepes 20 mM MgCl2 pH 7 buffer. Reactions were incubated at 37° C. and SYPRO Orange fluorescence intensity was monitored at the indicated time points using Glomax® Discover Microplate Reader from Promega (Madison, WI, USA).
Compounds of Examples 8, 39, 40, 54, and 72 were also tested as described above, except that ALDURAZYME® was used instead of the recombinant human α-L-iduronidase protein (obtained in the Institute of Biotechnology and Biomedicine in the UAB, Bellaterra, Spain).

[3] = target: T3, Recombinant human α-L-iduronidase protein (Homo sapiens, UniProt P35475); test: Denaturation prevention assay in neutral pH buffer; type: biochemical; details: 500 µM reference compound, pH 7, 37° C.
T3 construct: Ala26-Pro653 with a C-terminal 10_His tag; 10xHis (C); host or cells: HEK293f (stated in b1366 for the UAB protein)
T3 sequence (P35475 26-653): T2 sequence (P35475 26-653 limits assumed)
Protocol: The capacity of Compounds of the Disclosure to stabilize α-L-iduronidase in neutral pH buffer was assessed using the denaturation prevention assay.
as §1
The compound referred to as Compound A throughout this specification is the compound of Example 8 described above. […] (T=37° C.).

SMILES | DSF Activity range ([1]; synthetized Examples 38-94) | prevention of IDUA denaturation [2] | DSF Activity range ([1]; commercially available Examples 8-37) | prevention of pH-induced IDUA denaturation [3]
CCCN(CC(=O)N(C)c1ccccc1Cl)Cc1nc2cc(C)sc2c(=O)[nH]1 [Example 54] | B (ΔTm GALC between 0.5 and 1 is shown as B) | prevent IDUA denaturation |  | 
Cc1csc2c(=O)[nH]c(CN(C)CC(=O)N3CCc4ccccc43)nc12 [Example 39] | B (ΔTm GALC between 0.5 and 1 is shown as B) | prevent IDUA denaturation |  | 
CCN(CC(=O)Nc1c(Cl)cccc1Cl)Cc1nc2ccsc2c(=O)[nH]1 [Example 8, N-(2,6-dichlorophenyl)-2-(ethyl((4-oxo-3,4-dihydrothieno[3,2-d]pyrimidin-2-yl)methyl)amino)acetamide] |  | prevent IDUA denaturation | A (ΔTm GALC > 1 is shown as A) | 
Cc1csc2c(=O)[nH]c(CN(C)CC(=O)N(C)c3ccc(Cl)c(Cl)c3)nc12 [Example 40, 2-(N-((3,4-dihydro-7-methyl-4-oxothieno[3,2-d]pyrimidin-2-yl)methyl)-N-methylamino)-N-(3,4-dichlorophenyl)-N-methylacetamide] | B (ΔTm GALC between 0.5 and 1 is shown as B) | prevent IDUA denaturation |  | 
CCN(CC(=O)N(C)c1c(Cl)cccc1Cl)Cc1nc2ccc(F)cc2c(=O)[nH]1 [Example 69, 2-(N-ethyl-N-((6-fluoro-3,4-dihydro-4-oxoquinazolin-2-yl)methyl)amino)-N-(2,6-dichlorophenyl)-N-methylacetamide] | C (ΔTm GALC between 0.1 and 0.5 is shown as C) |  |  | 
CN(CC(=O)N(C)c1cccc(F)c1)Cc1nc2ccc(F)cc2c(=O)[nH]1 [Example 74] | B (ΔTm GALC between 0.5 and 1 is shown as B) |  |  | 
Cc1cc2nc(CN(C)CC(=O)N(C)c3ccc(Cl)c(Cl)c3)[nH]c(=O)c2s1 [Example 55, N-(3,4-dichlorophenyl)-N-methyl-2-(methyl((6-methyl-4-oxo-3,4-dihydrothieno[3,2-d]pyrimidin-2-yl)methyl)amino)acetamide] | C (ΔTm GALC between 0.1 and 0.5 is shown as C) |  |  | 
CN(CC(=O)N1CCc2ccccc21)Cc1nc2cc(F)ccc2c(=O)[nH]1 [Example 72, 7-fluoro-2-(((2-(indolin-1-yl)-2-oxoethyl)(methyl)amino)methyl)quinazolin-4(3H)-one] | B (ΔTm GALC between 0.5 and 1 is shown as B) | prevent IDUA denaturation |  | 
CN(CC(=O)N(C)c1ccc(Cl)c(Cl)c1)Cc1nc2ccc(F)cc2c(=O)[nH]1 [Example 58, N-(3,4-dichlorophenyl)-2-(((6-fluoro-4-oxo-3,4-dihydroquinazolin-2-yl)methyl)(methyl)amino)-N-methylacetamide] | B (ΔTm GALC between 0.5 and 1 is shown as B) |  |  | 
O=C[C@H](O)[C@@H](O)[C@H](O)[C@@H](O)C(=O)O [L-iduronic acid, reference compound] |  |  |  | minimal effect
Cc1ccc2c(=O)[nH]c(CN(C)CC(=O)N(C)c3cccc(F)c3)nc2c1 [Example 87, 2-(N-((3,4-dihydro-7-methyl-4-oxoquinazolin-2-yl)methyl)-N-methylamino)-N-(3-fluorophenyl)-N-methylacetamide] | D (ΔTm GALC less than 0.1 is shown as D) |  |  | 
Cc1ccc2nc(CN(C)CC(=O)N(C)c3cccc(F)c3)[nH]c(=O)c2c1 [Example 82] | B (ΔTm GALC between 0.5 and 1 is shown as B) |  |  | 
